Test systems include DLD-1 colon; HT29 colon; KM20L2 colon; LXFL 529 NSCLC; M19-MEL melanoma; OVCAR-3 ovarian; SNB-78 CNS; SW-620 colon; MDA-MB-435; MDA-N; NCI/ADR-RES ovarian; PC-3 prostate; HS 578T breast; RXF-631 renal.
What all share (assay): NCI tumour cell line growth inhibition, 48 h

The structures appear in SMILES notation.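 Five concentrations, 48 hours, 96-well plates. GI50: concentration for 50% inhibition of growth. TGI marks complete inhibition of growth.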

Turning to `COC1CCC(O)C(CO)O1` (configuration not stated), the TGI in the test with DLD-1 colon, with HT29 colon, in the test with KM20L2 colon, in the test with LXFL 529 NSCLC, with M19-MEL melanoma and in the test with OVCAR-3 ovarian was greater than 100 µM each time. Moreover, the TGI in the test with SNB-78 CNS and in the test on SW-620 colon was greater than 100 µM each time.
Regarding `NCC(=O)N[C@H]1c2ccsc2/C(=N/O)[C@H]1O`, the TGI in the test with HT29 colon, with MDA-MB-435, in the test with MDA-N, in the test with NCI/ADR-RES ovarian, in the test on OVCAR-3 ovarian and in the test on PC-3 prostate was greater than 100 µM throughout. For the same compound, in the test on SW-620 colon, the TGI was greater than 100 µM.
Turning to `COc1ccccc1C1C(C#N)=C(N)SC(N)=C1C#N`, the GI50 in the test on HS 578T breast was greater than 100 µM; with HT29 colon it was 37.4 µM; with MDA-MB-435, 52.8 µM; with NCI/ADR-RES ovarian, 43.9 µM; with OVCAR-3 ovarian it was 62.4 µM; in the test on SW-620 colon it was greater than 100 µM. Moreover, the TGI with HS 578T breast, in the test with HT29 colon, with MDA-MB-435, in the test on NCI/ADR-RES ovarian, in the test with OVCAR-3 ovarian and in the test on SW-620 colon was greater than 100 µM throughout.
In the case of `CCOC(=O)c1ccc(N2C(=O)/C(=C/c3ccc(N(CCC#N)CCC#N)cc3)N=C2c2cc([N+](=O)[O-])ccc2Cl)cc1`, the TGI in the test on DLD-1 colon, in the test with KM20L2 colon, in the test with LXFL 529 NSCLC, with M19-MEL melanoma, in the test with OVCAR-3 ovarian and with RXF-631 renal was greater than 100 µM in each case. Besides, the TGI in the test with SNB-78 CNS and in the test on SW-620 colon was greater than 100 µM in each case.
As to `CC1OC1C(=O)P(=O)(O)O` (configuration not stated), the TGI in the test with HS 578T breast, in the test on MDA-MB-435, in the test on MDA-N, in the test with NCI/ADR-RES ovarian, in the test with OVCAR-3 ovarian and in the test on PC-3 prostate was greater than 100 µM each time. For the same compound, in the test on SW-620 colon, the TGI was greater than 100 µM.
